From article PMC8260592 (Scientific Reports, 2021)
≈ marks a conversion by molar mass, not a printed value. Entries after “also recorded” stand apart in the source; their conditions may differ. Like-named read-outs stand apart in the source and are kept apart here.

Experiments:
[1] = target: AChE (Type VI-S from Electrophorus electricus) (Electrophorus electricus, UniProt O42275); assay: biochemical; conditions: for SI: IC50 for BChE divided by IC50 for AChE; for remaining activity at 10 µM: read-out: Residual activity at 10 µM (%) AChE; for inhibition at 10 µM: read-out: Inhibition of AChE
Experimental: (§1) AChE and BChE inhibitory activities were measured after preincubating enzymes with inhibitors for 15 min before adding substrates (ATCI and BTCI, respectively) and DTNB. AChE activities were assayed as previously described, with slight modification[21],[22]. […] MAO-A and MAO-B activities were determined using a continuous spectrophotometric method, as described previously[23],[24]. […] Reaction rates are expressed as changes in absorbance per min. […]

[2] = target: T1, BChE (equine serum) (Equus caballus, UniProt P81908); assay: biochemical; conditions: for remaining activity at 10 µM: read-out: Residual activity at 10 µM (%) BChE
T1 construct: BChE (equine serum); purchased Sigma-Aldrich; host or cells: equine serum
Experimental: as §1

[3] = target: T2, MAO-B (Homo sapiens, UniProt P27338); assay: biochemical; conditions: for IC50: read-out: IC50 (µM) MAO-B; for remaining activity at 10 µM: read-out: Residual activity at 10 µM (%) MAO-B
T2 construct: purchased Sigma-Aldrich
T2 sequence (P27338 1-520): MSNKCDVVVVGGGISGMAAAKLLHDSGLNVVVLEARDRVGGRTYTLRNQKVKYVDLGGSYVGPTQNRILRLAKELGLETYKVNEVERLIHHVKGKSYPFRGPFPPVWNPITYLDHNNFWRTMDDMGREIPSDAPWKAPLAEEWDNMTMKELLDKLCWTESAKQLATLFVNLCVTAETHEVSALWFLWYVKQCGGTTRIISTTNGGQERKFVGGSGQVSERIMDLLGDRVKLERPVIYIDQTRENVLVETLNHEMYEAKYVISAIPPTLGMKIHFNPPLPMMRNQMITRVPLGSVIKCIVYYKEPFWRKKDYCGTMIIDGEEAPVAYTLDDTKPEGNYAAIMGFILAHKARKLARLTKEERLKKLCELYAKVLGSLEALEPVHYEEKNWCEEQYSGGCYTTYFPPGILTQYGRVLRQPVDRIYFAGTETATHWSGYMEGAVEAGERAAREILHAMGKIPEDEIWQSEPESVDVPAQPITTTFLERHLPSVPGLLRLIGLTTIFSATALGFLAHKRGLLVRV
Experimental: (§2) AChE and BChE inhibitory activities were measured after preincubating enzymes with inhibitors for 15 min before adding substrates (ATCI and BTCI, respectively) and DTNB. AChE activities were assayed as previously described, with slight modification[21],[22]. […] MAO-A and MAO-B activities were determined using a continuous spectrophotometric method, as described previously[23],[24]. […] Reaction rates are expressed as changes in absorbance per min.
(§3) Inhibitory patterns and Ki values were determined using Lineweaver–Burk (LB) plots and secondary plots of LB slopes.

[4] = target: T3, Recombinant human MAO-A (Homo sapiens, UniProt P21397); assay: biochemical; conditions: for IC50: read-out: IC50 (µM) MAO-A; for remaining activity at 10 µM: read-out: Residual activity at 10 µM (%) MAO-A
T3 construct: purchased Sigma-Aldrich
T3 sequence (P21397 1-527): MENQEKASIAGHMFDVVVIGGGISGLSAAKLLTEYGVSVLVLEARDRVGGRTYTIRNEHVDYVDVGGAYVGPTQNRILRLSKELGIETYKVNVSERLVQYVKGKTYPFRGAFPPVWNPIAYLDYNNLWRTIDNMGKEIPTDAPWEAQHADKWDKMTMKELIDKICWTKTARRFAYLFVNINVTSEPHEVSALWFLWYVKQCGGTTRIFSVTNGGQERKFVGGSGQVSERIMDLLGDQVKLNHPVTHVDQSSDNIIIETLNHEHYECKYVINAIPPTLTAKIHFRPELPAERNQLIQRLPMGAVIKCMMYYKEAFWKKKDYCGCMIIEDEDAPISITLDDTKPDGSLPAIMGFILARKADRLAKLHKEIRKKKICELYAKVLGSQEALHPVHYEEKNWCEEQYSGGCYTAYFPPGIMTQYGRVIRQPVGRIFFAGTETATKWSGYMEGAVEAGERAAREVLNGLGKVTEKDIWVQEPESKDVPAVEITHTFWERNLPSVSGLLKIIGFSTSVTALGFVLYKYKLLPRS
Experimental: as §2, §3

[5] = target: T4, BACE-1 (Homo sapiens, UniProt P56817); assay: BACE-1 activity detection kit (fluorescence); format: biochemical; conditions: read-out: Residual activity at 10 µM (%) BACE-1
T4 construct: purchased Sigma-Aldrich

[6] = target: T5, AChE (Electrophorus electricus, UniProt O42275); assay: Reversibility of AChE inhibition by dialysis; format: biochemical
Experimental: (§4) After preincubating three compounds or reference inhibitors with enzymes for 15 min, residual activities of undialyzed (AU) and dialyzed (AD) samples were expressed as percentages of those of non-inhibitor treated controls. Reversibilities were assessed using AU and AD values and compared with those of reference compounds.
(§5) After preincubating the compounds with enzymes for 15 min, the mixtures were dialyzed for 6 h with two buffer changes. Results are the averages of duplicate or triplicate experiments.

[7] = target: T2, MAO-B; assay: Reversibility of MAO-B inhibition by dialysis; format: biochemical
Experimental: as §4, §5

[8] = target: T5, AChE; assay: Kinetics of AChE inhibition (Lineweaver-Burk and secondary plots); format: biochemical; conditions: for Mode of AChE inhibition: LB plots; for Ki: secondary plots of LB slopes, substrate 0.05-1.0 mM, read-out: Ki for AChE
Experimental: as §3
Substrate concentrations ranged from 0.05 to 1.0 mM. […] Initial reaction rates are expressed as increases in absorbance per min.

[9] = target: T2, MAO-B; assay: Kinetics of MAO-B inhibition (Lineweaver-Burk and secondary plots); format: biochemical
Experimental: as §3

[10] = tested on: Madin-Darby canine kidney (MDCK) cells; assay: Cytotoxicity test, CCK-8 assay; conditions: 50 µM, 24 h, CCK-8
Experimental: (§6) Madin-Darby canine kidney (MDCK) cells and human acute promyelocytic leukemia (HL-60) cells were obtained from the Korean Cell Line Bank (Seoul, Korea). […] Cultures were maintained at 37 °C under 5% CO2, and media were changed every two days.
(§7) Cell viabilities were determined using the CCK-8 assay. Briefly, MDCK cells or HL-60 cells were resuspended at 1 × 10^5 or 3 × 10^5 cells/mL and suspensions (100 µL) were added to wells of a 96-well plate and incubated in 5% CO2 atmosphere at 37 °C for 24 h. After incubation, 100 µL of each medium was treated with compounds at 1, 3, 10, 30, or 50 µM and incubated in 5% CO2 at 37 °C for 24 h. CCK-8 (10 µL/well) was then added to 100 µL aliquots from each cell and incubated 2–4 h. Absorbances were measured at 450 nm using a microplate reader (Versamax, Molecular Devices, San Jose, CA, USA).
(§8) Both cell lines were treated with each compound (at 1, 3, 10, 30, or 50 µM) for 24 h. Culture supernatants were then removed and CCK-8 was added. […] Data are expressed as the means ± SDs of triplicate experiments.

[11] = tested on: human acute promyelocytic leukemia (HL-60) cells; assay: Cytotoxicity test, CCK-8 assay; conditions: 50 µM, 24 h, CCK-8
Experimental: as §6, §7, §8

[12] = Cytotoxicity test, CCK-8 assay
Experimental: as §6, §7, §8

[13] = tested on: AChE; conditions: cited from earlier work

T5 sequence (O42275 24-633): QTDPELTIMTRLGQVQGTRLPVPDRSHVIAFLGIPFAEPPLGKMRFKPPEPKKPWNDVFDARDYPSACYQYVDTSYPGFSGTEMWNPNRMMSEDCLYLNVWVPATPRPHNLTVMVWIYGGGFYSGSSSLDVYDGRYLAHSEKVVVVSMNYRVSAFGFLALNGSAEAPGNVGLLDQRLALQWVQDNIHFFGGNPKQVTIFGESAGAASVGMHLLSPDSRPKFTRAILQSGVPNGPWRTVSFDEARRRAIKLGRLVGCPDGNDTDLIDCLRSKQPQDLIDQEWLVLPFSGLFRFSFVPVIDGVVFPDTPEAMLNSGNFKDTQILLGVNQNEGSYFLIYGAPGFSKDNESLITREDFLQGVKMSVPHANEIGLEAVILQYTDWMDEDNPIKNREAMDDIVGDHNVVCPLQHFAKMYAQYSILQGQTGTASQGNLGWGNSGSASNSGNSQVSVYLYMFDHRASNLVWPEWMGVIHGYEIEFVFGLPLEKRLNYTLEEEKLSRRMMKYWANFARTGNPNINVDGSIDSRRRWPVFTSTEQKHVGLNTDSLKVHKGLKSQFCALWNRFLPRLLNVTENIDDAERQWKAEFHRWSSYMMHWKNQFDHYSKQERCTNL
Sequence of AChE (Type VI-S from Electrophorus electricus) (O42275 24-633): as above
T4 sequence (P56817 46-457): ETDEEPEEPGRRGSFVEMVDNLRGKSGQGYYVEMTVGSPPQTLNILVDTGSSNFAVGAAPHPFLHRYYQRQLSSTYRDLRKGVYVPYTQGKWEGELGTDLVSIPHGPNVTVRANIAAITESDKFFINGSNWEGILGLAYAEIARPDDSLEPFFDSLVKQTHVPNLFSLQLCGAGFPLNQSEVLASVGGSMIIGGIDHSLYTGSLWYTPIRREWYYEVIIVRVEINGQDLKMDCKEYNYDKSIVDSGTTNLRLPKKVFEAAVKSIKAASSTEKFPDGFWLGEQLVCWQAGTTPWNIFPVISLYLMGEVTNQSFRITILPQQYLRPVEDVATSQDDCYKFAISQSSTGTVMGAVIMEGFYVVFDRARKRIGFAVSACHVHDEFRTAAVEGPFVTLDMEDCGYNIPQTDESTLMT
T1 sequence (P81908 whole entry): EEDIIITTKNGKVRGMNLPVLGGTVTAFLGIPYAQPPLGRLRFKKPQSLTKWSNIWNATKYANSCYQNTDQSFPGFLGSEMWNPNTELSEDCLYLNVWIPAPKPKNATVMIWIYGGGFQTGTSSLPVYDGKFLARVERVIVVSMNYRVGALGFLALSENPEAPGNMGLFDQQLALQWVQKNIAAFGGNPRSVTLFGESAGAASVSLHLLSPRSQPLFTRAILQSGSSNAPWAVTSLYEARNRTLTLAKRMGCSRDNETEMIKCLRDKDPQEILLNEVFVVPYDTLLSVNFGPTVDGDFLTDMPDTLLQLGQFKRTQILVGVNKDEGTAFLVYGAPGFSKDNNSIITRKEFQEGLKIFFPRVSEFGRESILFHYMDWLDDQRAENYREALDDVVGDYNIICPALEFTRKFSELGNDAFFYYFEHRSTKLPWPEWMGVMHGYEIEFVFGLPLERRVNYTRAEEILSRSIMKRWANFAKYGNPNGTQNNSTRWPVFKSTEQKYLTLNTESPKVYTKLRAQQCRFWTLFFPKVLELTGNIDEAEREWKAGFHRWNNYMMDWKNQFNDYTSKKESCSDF

| SMILES | IC50 [1] | SI [1] | remaining activity at 10 µM [1] | IC50 [2] | remaining activity at 10 µM [2] | IC50 [3] | remaining activity at 10 µM [3] | IC50 [4] | remaining activity at 10 µM [4] | remaining activity at 10 µM [5] | also measured |
| --- | --- | --- | --- | --- | --- | --- | --- | --- | --- | --- | --- |
| O=C(OCc1cc(O)c(O[C@@H]2O[C@H](CO)[C@@H](O)[C@H](O)[C@H]2O)c(O)c1)c1cc(O)c(O)c(Oc2c(C(=O)OCc3cc(O)c(O[C@@H]4O[C@H](CO)[C@@H](O)[C@H](O)[C@H]4O)c(O)c3)cc(O)c(O)c2O)c1 [Compound 1, chestanin] | 37 ± 3 µM | > 1.1 | 72.5 ± 2.1% | > 40 µM | 96.2 ± 3.9% | > 40 µM | 67.2 ± 8.1% | > 40 µM | 91.7 ± 1.6% | 78.9 ± 0.3% |  |
| COc1cc2c(=O)oc3c(OC)c(O[C@@H]4O[C@H](CO)[C@@H](O)[C@H](O)[C@H]4O)cc4c(=O)oc(c1OC)c2c34 [Compound 2, 4′-O-(β-D-glucopyranosyl)-3,3′,4-tri-O-methylellagic acid] | 46.4 ± 2.7 µM | > 0.9 | 70.5 ± 5% | > 40 µM | 90.8 ± 4.2% | > 40 µM | 60.9 ± 5.2% | > 40 µM | 91.3 ± 7.9% | 91.9 ± 1% |  |
| COc1cc2c(=O)oc3c(OC)c(O[C@@H]4O[C@@H](C)[C@H](O)[C@@H](O)[C@H]4O)cc4c(=O)oc(c1OC)c2c34 [Compound 3, 4′-O-(α-L-rhamnopyranosyl)-3,3′,4-tri-O-methylellagic acid] | 10.1 ± 0.4 µM | > 4.0 | 55.4 ± 3.4% | > 40 µM | 83.3 ± 2.1% | 7.27 ± 0.16 µM | 43.2 ± 3.7% | > 40 µM | 83 ± 6.3% | 99.7 ± 0.4% | inhibition at 10 µM [1]: ~50%; inhibition at 10 µM ([3]; 10 µM): > 50%; Reversibility of AChE inhibition [6]: reversibly; also recorded: reversible inhibitors; Reversibility of MAO-B inhibition [7]: reversible inhibitors; Mode of AChE inhibition [8]: competitively; also recorded: competitive but partly mixed; also recorded: competitive but partially mixed; Ki [8]: 5.37 ± 0.62 µM; Mode of MAO-B inhibition ([9]; LB plots): competitive; Ki ([9]; secondary plots of LB slopes, substrate 0.0375-0.6 mM, read-out: Ki for MAO-B): 2.25 ± 0.01 µM; MDCK cell viability [10]: slightly or non-toxic; also recorded: negligible effects; also recorded: non-toxic or slightly toxic; HL-60 cell viability [11]: negligible effects; also recorded: non-toxic or slightly toxic |
| COc1cc2c(=O)oc3c(OC)c(O)cc4c(=O)oc(c1OC)c2c34 [Compound 4, 3,3′,4-tri-O-methylellagic acid] | 10.7 ± 1 µM | > 3.7 | 53.2% | > 40 µM | 92.3 ± 2.3% | > 40 µM | 89.1 ± 4.1% | > 40 µM | 83.1 ± 4.7% | 90.1 ± 0.4% | inhibition at 10 µM [1]: ~50%; Reversibility of AChE inhibition [6]: reversibly; also recorded: reversible inhibitors; Mode of AChE inhibition [8]: competitively; also recorded: competitive but partly mixed; also recorded: competitive but partially mixed; Ki [8]: 3.74 ± 0.26 µM; viability at 24 h, 50 µM ([12]; dog, MDCK cells): 67.9%; viability at 24 h, 50 µM ([12]; human, HL-60 cells): 84.6%; MDCK cell viability [10]: slightly or non-toxic; also recorded: non-toxic or slightly toxic; HL-60 cell viability [11]: non-toxic or slightly toxic |
| COc1cc(/C=C/C(=O)CC(=O)/C=C/c2ccc(O)c(OC)c2)ccc1O [curcumin] |  |  |  |  |  |  |  |  |  |  | IC50 ([13]; ref 51): 23.5 µM |
| O=C(O[C@@H]1Cc2c(O)cc(O)cc2O[C@@H]1c1cc(O)c(O)c(O)c1)c1cc(O)c(O)c(O)c1 [epigallocatechin gallate] |  |  |  |  |  |  |  |  |  |  | IC50 ([13]; ref 52): 14.8 µM |
